Assay results: patent US9604998B2, “Inhibitors of the renal outer medullary potassium channel” (MERCK SHARP & DOHME CORP., priority 2013, dated 2017)
Where a name gives a salt, the structure may show the parent alone. Read-outs that look alike come from different tables or passages of the source.

Key:
[1] = molecular target: Kir1.1 (ROMK1) (Homo sapiens (Human), UniProt P48048); experiment: Electrophysiology Assay (whole cell voltage clamp, IonWorks Quattro); assay type: cell-based; details: block during voltage step to 0 mV
Procedure: Chinese hamster ovary cells stably expressing Kir1.1 channels were maintained in T-75 flasks in cell culture media in a humidified 10% CO2 incubator at 37° C. Prior to an experiment, Kir1.1 expression was induced by overnight incubation with 1 mM sodium butyrate. […] After centrifugation, the cell pellet was resuspended in approximately 4.0 mL of bath solution and placed in the IonWorks instrument. The intracellular solution consisted of (in mM): 80 K gluconate, 40 KCl, 20 KF, 3.2 MgCl2, 3 EGTA, 5 Hepes, pH 7.4. Electrical access to the cytoplasm was achieved by perforation in 0.13 mg/mL amphotericin B for 4 min. […] Voltage protocols and current recordings were performed using the IonWorks HT software/hardware system. Currents were sampled at 1 kHz. No correction for liquid junction potentials was used. The test pulse, consisting of a 100 ms step to 0 mV from a holding potential of −70 mV, followed by a 100 ms voltage ramp from −70 mV to +70 mV, was applied before and after a 6 min compound incubation period. Test compounds were prepared by diluting DMSO stock solutions into the bath solution at 3× the final concentration and placed in the instrument in 96-well polypropylene plates. Current amplitudes were measured using the IonWorks software.

[2] = molecular target: hROMK (hKir1.1) (Homo sapiens (Human), UniProt P48048); experiment: Thallium Flux Assay (ROMK channel functional thallium flux, FLIPR-Tetra); assay type: cell-based
Procedure: HEK293 cells stably expressing hROMK (hKir1.1) were grown at 37° C. in a 10% CO2 humidified incubator in complete growth media: Dulbecco's Modified Eagle Medium supplemented with non-essential amino acids, Penicillin/Streptomycin/Glutamine, G418 and FBS. At >80% confluency, aspirate the media from the flask and rinse with 10 mL Calcium/Magnesium-free PBS. […] To dislodge the cell, gently bang the side of the flask with your hand. Triturate the cells completely and then transfer the cells to 25 mL complete media. Centrifuge at 1,500 rpm for 6 min followed by resuspension in complete growth media and determine cell concentration.
Compound Buffer (per microplate): 20 mL Probenecid/Assay Buffer; 0.3 mM ouabain (10 mM ouabain in water can be stored in amber bottle/aluminum foil at room temperature); Test compound
Stimulant Buffer (prepared at 5× final concentration in 1× FluxOR™ Chloride-Free Buffer): 7.5 mM Thallium sulfate and […] (to give a final assay concentration of 3 mM Thallium/0.3 mM Potassium). Store at 4° C. when not in use. If kept sterile, this solution is good for months.
The ROMK channel functional thallium flux assay is performed in 384 wells, using the FLIPR-Tetra instrument. HEK-hKir1.1 cells are seeded in Poly-D-Lysine microplates and kept in a 37° C.-10% CO2 incubator overnight. On the day of the experiment, the growth media is replaced with the FluxOR™ reagent loading buffer and incubated, protected from light, at ambient temperature (23-25° C.) for 90 min. The loading buffer is replaced with assay buffer±test compound followed by 30 min incubation at ambient temperature, where the Thallium/Potassium stimulant is added to the microplate.
1. Seed HEK-hKir1.1 cells (50 μl at 20,000 cells/well) in 384-well PDL coated Microplates
2. Allow cells to adhere overnight in humidified 37° C./10% CO2 incubator
3. Completely remove cell growth media from microplate and replace with 25 μl loading buffer
4. Incubate Microplate at room temperature, protected form light, for 90 min
5. Remove loading buffer and replace with 25 μl 1× Assay Buffer±test compound.
6. Incubate microplate at room temperature, protected from light, for 30 min
7. […] Excitation=400 nm, Emission=460 & 580 nm. Collect data for ˜10 min.
The fluorescence intensity of wells containing 3 μM of a standard control ROMK inhibitor of the present invention is used to define the ROMK-sensitive component of thallium flux. Fluorescence in the presence of test compounds is normalized to control values to provide % fluorescence change.

[3] = Chinese hamster ovary cells stably expressing Kir1.1, read-out: Electrophysiology IC50
[4] = HEK293 cells stably expressing hROMK (hKir1.1), read-out: Thallium Flux IC50
[5] = Electrophysiology IC50, Chinese hamster ovary cells stably expressing Kir1.1
[6] = Thallium Flux IC50, HEK293 cells stably expressing hROMK (hKir1.1)

Kir1.1 (ROMK1), sequence (P48048 whole entry, species assumed): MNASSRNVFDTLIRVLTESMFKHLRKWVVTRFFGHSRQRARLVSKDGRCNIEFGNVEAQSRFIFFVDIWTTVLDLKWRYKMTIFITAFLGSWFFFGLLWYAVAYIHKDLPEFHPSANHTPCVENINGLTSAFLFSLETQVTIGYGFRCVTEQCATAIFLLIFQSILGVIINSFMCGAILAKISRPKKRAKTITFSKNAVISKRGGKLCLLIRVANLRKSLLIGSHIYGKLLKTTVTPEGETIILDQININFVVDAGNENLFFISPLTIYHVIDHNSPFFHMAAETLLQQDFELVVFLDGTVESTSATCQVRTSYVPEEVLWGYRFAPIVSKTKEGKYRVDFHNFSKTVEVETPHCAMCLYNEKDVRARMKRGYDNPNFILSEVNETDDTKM
hROMK (hKir1.1), sequence (P48048 whole entry): as the sequence (P48048 whole entry, species assumed) above

Structure (SMILES)	IC50 [1, 3] [nM]	IC50 [2, 4] [nM]	IC50 [1, 5] [nM]	IC50 [2, 6] [nM]
Cc1c([C@@H]2CN3CCN(CC(O)c4ccc(-n5cnnn5)nc4)C[C@H]3CO2)ccc(F)c1C#N (single isomer, unassigned) [Example 16]	80	560	–	–
Cc1c([C@H]2CN3CCN(CC(O)c4ccc(-n5cnnn5)nc4)C[C@H]3CO2)ccc(F)c1C#N (single isomer, unassigned) [Example 17]	150	850	–	–
Cc1c([C@H]2CN3CCN(CC(O)c4ccc(-n5cnnn5)nc4)C[C@H]3CO2)ccc(F)c1C#N (single isomer, unassigned) [Example 18]	100	290	–	–
Cc1cc(-n2cnnn2)ncc1C(O)CN1CCN2C[C@@H](c3ccc(F)c(C#N)c3C)OC[C@@H]2C1 (single isomer, unassigned) [Example 19]	–	440	260	–
Cc1cc(-n2cnnn2)ncc1C(O)CN1CCN2C[C@@H](c3ccc(F)c(C#N)c3C)OC[C@@H]2C1 (single isomer, unassigned) [Example 20]	–	300	240	–
Cc1nc(-n2cnnn2)ccc1C(O)CN1CCN2C[C@@H](c3ccc(F)c(C#N)c3C)OC[C@@H]2C1 (single isomer, unassigned) [Example 21]	–	260	–	–
Cc1c([C@@H]2CN3CCN(CC(O)c4cccc(-n5cnnn5)c4)C[C@@H]3CO2)ccc(F)c1C#N (single isomer, unassigned) [Example 22]	440	310	–	–
Cc1c([C@@H]2CN3CCN(CC(O)c4cccc(-n5cnnn5)c4)C[C@@H]3CO2)ccc(F)c1C#N (single isomer, unassigned) [Example 23]	–	320	–	–
Cc1cc2c(cc1C(O)CN1CCN3C[C@@H](c4ccc(F)c(C#N)c4C)OC[C@@H]3C1)COC2=O (single isomer, unassigned) [Example 24, trifluoroacetate]	–	–	240	450
Cc1cc2c(cc1C(O)CN1CCN3C[C@@H](c4ccc(F)c(C#N)c4C)OC[C@@H]3C1)COC2=O (single isomer, unassigned) [Example 25, trifluoroacetate]	–	–	190	340
Cc1cc2c(cc1C(O)CN1CCN3C[C@H](c4ccc(F)c(C#N)c4C)OC[C@@H]3C1)COC2=O (single isomer, unassigned) [Example 26, trifluoroacetate]	–	–	220	250
Cc1cc2c(cc1C(O)CN1CCN3C[C@H](c4ccc(F)c(C#N)c4C)OC[C@@H]3C1)COC2=O (single isomer, unassigned) [Example 27, trifluoroacetate]	–	–	240	310
COc1cc(C(O)CN2CCN3C[C@@H](c4ccc5c(c4C)COC5=O)OC[C@@H]3C2)c(F)cc1C#N (single isomer, unassigned) [Example 37]	110	470	–	–
Cc1cc2c(cc1C(O)CN1CCN3C[C@@H](c4ccc5c(c4C)COC5=O)OC[C@@H]3C1)COC2=O (single isomer, unassigned) [Example 42]	80	220	–	–
Cc1cc2c(cc1C(O)CN1CCN3C[C@@H](c4ccc5c(c4C)COC5=O)OC[C@@H]3C1)COC2=O (single isomer, unassigned) [Example 43]	130	210	–	–
Cc1c([C@@H]2CN3CCN(CC(O)c4ccc5c(c4)C[C@H](C)OC5=O)C[C@H]3CO2)ccc2c1COC2=O (single isomer, unassigned) [Example 44]	130	270	–	–

Structure (SMILES)	IC50 [1, 3] [nM]	IC50 [2, 4] [nM]	IC50 [1, 5] [nM]	IC50 [2, 6] [nM]
COc1cc(C(O)CN2CCN3C[C@@H](c4ccc5c(c4C)COC5=O)OC[C@@H]3C2)c(Cl)cc1C#N (stereo partly drawn) [Example 9, (3R,9aS)-8-[2-(2-chloro-4-cyano-5-methoxyphenyl)-2-hydroxyethyl]-3-(4-methyl-1-oxo-1,3-dihydro-2-benzofuran-5-yl)octahydropyrazino[2,1-c][1,4]oxazin-5-ium chloride]	–	430	–	–
COc1c([C@@H]2CN3CCN(C[C@H](O)c4ccc5c(c4C)COC5=O)C[C@H]3CO2)ccc(C#N)c1F [Example 30, (3R,9aS)-3-(4-cyano-3-fluoro-2-methoxyphenyl)-8-[(2R)-2-hydroxy-2-(4-methyl-1-oxo-1,3-dihydro-2-benzofuran-5-yl)ethyl]octahydropyrazino[2,1-c][1,4]oxazin-8-ium chloride]	–	230	–	–
COc1c([C@@H]2CN3CCN(C[C@@H](O)c4ccc5c(c4C)COC5=O)C[C@H]3CO2)ccc(C#N)c1F [Example 31, (3R,9aS)-3-(4-cyano-3-fluoro-2-methoxyphenyl)-8-[(2S)-2-hydroxy-2-(4-methyl-1-oxo-1,3-dihydro-2-benzofuran-5-yl)ethyl]octahydropyrazino[2,1-c][1,4]oxazin-8-ium chloride]	–	650	–	–
COc1cc(CCN2CCN3C[C@@H](c4ccc5c(c4)COC5=O)OC[C@@H]3C2)ccc1C#N [Example 58]	120	–	–	–
COc1cc(CCN2CCN3C[C@H](c4ccc5c(c4)COC5=O)OC[C@@H]3C2)ccc1C#N [Example 59]	40	–	–	–
COc1cc(CCN2CCN3C[C@H](c4ccc5c(c4C)COC5=O)OC[C@@H]3C2)ccc1C#N [Example 60]	180	–	–	–
O=C1OCc2cc(CCN3CCN4C[C@@H](c5ccc6c(c5)COC6=O)OC[C@@H]4C3)ccc21 [Example 62]	40	–	–	–
Cc1c(CCN2CCN3C[C@H](c4ccc5c(c4C)COC5=O)OC[C@H]3C2)ccc2c1COC2=O [Example 67]	70	–	–	–
Cc1c(CCN2CCN3C[C@@H](c4ccc5c(c4C)COC5=O)OC[C@H]3C2)ccc2c1COC2=O [Example 68]	140	–	–	–
COc1cc([C@H]2CN3CCN(CCc4ccc5c(c4C)COC5=O)C[C@H]3CO2)ccc1C#N [Example 74]	80	–	–	–
Cc1c([C@H]2CN3CCN(CCc4ccc5c(c4C)COC5=O)C[C@@H]3CO2)ccc(F)c1C#N [Example 77]	70	–	–	–
Cc1c([C@@H]2CN3CCN(CCc4ccc5c(c4C)COC5=O)C[C@@H]3CO2)ccc(F)c1C#N [Example 78]	70	–	–	–
COc1cc(F)c(CCN2CCN3C[C@@H](c4ccc5c(c4C)COC5=O)OC[C@@H]3C2)cc1C#N [Example 84]	50	–	–	–
COc1cc(CCN2CCN3C[C@@H](c4ccc5c(c4)C[C@H](C)OC5=O)OC[C@@H]3C2)ccc1C#N [Example 85]	90	–	–	–
Cc1c([C@@H]2CN3CCN(C[C@H](O)c4ccc5c(c4C)COC5=O)C[C@H]3CN2)ccc(F)c1C#N [Example 102, 6-fluoro-3-((3R,9aR)-8-((R)-2-hydroxy-2-(4-methyl-1-oxo-1,3-dihydroisobenzofuran-5-yl)ethyl)octahydro-1H-pyrazino[1,2-a]pyrazin-3-yl)-2-methylbenzonitrile]	–	210	–	–
Cc1c([C@@H]2CN3CCN(CC4OCCc5c4ccc4c5COC4=O)C[C@H]3CO2)ccc2c1COC2=O (stereo partly drawn) [Example 109, 6-{[(3R,9aS)-3-(4-methyl-1-oxo-1,3-dihydro-2-benzofuran-5-yl)hexahydropyrazino[2,1-c][1,4]oxazin-8(1H)-yl]methyl}-8,9-dihydro-1H-furo[3,4-f]isochromen-3(6H)-one]	50	–	–	–
